From patent publication US12503454B2, “LPA receptor antagonists and uses thereof” (Gilead Sciences, Inc., priority 2021, dated 2025)

Target: human LPAR1 (Homo sapiens, UniProt Q92633)
Test: LPAR1 intracellular calcium mobilization assay (antagonist mode, FLIPR)
Type: cell-based
Settings: CHO-K1 EDG2 cells expressing human LPAR1; test compound 0.5 nM to 10 μM pre-incubated 60 minutes at 37° C., then LPA 18:2 at EC80 concentration (100 nM)
Protocol: In vitro LPAR1 activity was measured in an intracellular calcium mobilization assay. CHO-K1 EDG2 cells (DiscoverX cat #93-0644C2) expressing human LPAR1 (NM_001401.3) were seeded in a total volume of 25 μL of Dulbecco's Modification of Eagle's Medium (DMEM) with 10% Fetal Bovine Serum, 1× PenStrepGlutamine, 300 μg/ml Hygromycin, and 800 μg/ml G418 into 384-well tissue culture plate (Grenier #781091) at 15,000 cells/well and incubated at 37° C. overnight. Prior to testing, 25 μL Calcium Loading Dye Component A (FLIPR Calcium 6 Assay Kit Molecular Device # R8190) and 2.5 mM Probenecid (Invitrogen # P36400, prepared fresh) in Hank's Balanced Salt Solution (Corning #21-023-CV), 20 mM HEPES (Corning #25-060-CI), 0.1% Bovine Serum Albumin (Sigma-Aldrich # A7906-500G) was add to the cells for 60 minutes at 37° C.
Agonist dose curves of LPA 18:2 (Avanti Polar Lipids cat #857138, 0.5 nM to 10 μM) were recorded to determine the LPA 18:2 EC80 for subsequent antagonist assays. For agonist dose curves, cells were removed from the incubator 2 hours after dye loading and transferred to the FLIPR Tetra instrument (Molecular Devices, San Jose, CA). Calcium mobilization was monitored for 5 min and 10 μL 6×LPA in HBSS/20 mM Hepes/0.1% bovine serum albumin (BSA) was added to the cells 5 seconds into the assay.
To determine the LPAR1 antagonist activity of test compounds, cells were pre-incubated with test compound at a dose range of 0.5 nM to 10 μM, followed by LPA at EC80 concentration (100 nM). After dye loading, cells were removed from the incubator and 0.3 μL of 200× antagonist was added. Cells were incubated for 60 minutes at 37° C. Antagonist activity was measured on a FLIPR Tetra. Calcium mobilization was monitored for 3.5 minutes and 10 μL 6×EC80 LPA in HBSS, 20 mM HEPES, and 0.1% BSA was added to the cells 5 seconds into the assay. Signal amplitude (Maximum minus minimum) values were plotted against log10 of antagonist concentration using Dose Response Tool (Gilead Sciences Inc.) to determine […].
To assess the antagonistic potential of exemplified compounds […] were determined for Compounds 1 to 66 in the LPAR1 calcium mobilization assay. The compound numbers correspond to the compound numbers in Examples 1 to 18. N/A=not available.

Chain of human LPAR1 (Q92633 whole entry): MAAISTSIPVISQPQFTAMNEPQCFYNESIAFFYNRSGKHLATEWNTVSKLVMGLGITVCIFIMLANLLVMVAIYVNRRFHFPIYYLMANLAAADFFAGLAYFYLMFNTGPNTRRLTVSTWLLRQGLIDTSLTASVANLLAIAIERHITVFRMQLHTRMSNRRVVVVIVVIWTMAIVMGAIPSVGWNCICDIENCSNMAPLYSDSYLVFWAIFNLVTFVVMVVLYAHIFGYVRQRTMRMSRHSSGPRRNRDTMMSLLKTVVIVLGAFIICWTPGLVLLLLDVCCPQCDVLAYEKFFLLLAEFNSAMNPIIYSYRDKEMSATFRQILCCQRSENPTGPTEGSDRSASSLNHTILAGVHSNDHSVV

| Compound | EC50 |
| --- | --- |
| C[C@@H](OC(=O)Nc1c(-c2ccc(C(=O)Nc3ccc(C(F)(F)F)nc3)cn2)nnn1C)c1cc(F)cnc1F [Compound 25, (R)-1-(2,5-difluoro-pyridin-3-yl)ethyl (1-methyl-4-(5-((6-(trifluoromethyl)-pyridin-3-yl)-carbamoyl)pyridin-2-yl)-1H-1,2,3-triazol-5-yl)-carbamate] | 364 nM |
| C[C@@H](OC(=O)Nc1c(-c2ccc(C(=O)Nc3cccc(C(F)(F)F)c3)cn2)nnn1C)c1cc(F)cnc1F [Compound 30, (R)-1-(2,5-difluoro-pyridin-3-yl)ethyl (1-methyl-4-(5-((3-(trifluoromethyl)-phenyl)carbam-oyl)pyridin-2-yl)-1H-1,2,3-triazol-5-yl)carbamate] | 93 nM |
| C[C@@H](OC(=O)Nc1c(-c2ccc(C(=O)Nc3ccnc(OC(F)F)c3)cn2)nnn1C)c1cc(F)cnc1F [Compound 33, (R)-1-(2,5-difluoro-pyridin-3-yl)ethyl (4-(5-((2-(difluoro-methoxy)pyridin-4-yl)carbamoyl)-pyridin-2-yl)-1-methyl-1H-1,2,3-triazol-5-yl)-carbamate] | 273 nM |
| C[C@@H](OC(=O)Nc1c(-c2ccc(C(=O)Nc3ccc(C#N)c(C(F)(F)F)c3)cn2)nnn1C)c1cc(F)cnc1F [Compound 34, (R)-1-(2,5-difluoro-pyridin-3-yl)ethyl (4-(5-((4-cyano-3-(trifluoromethyl)-phenyl)carbamoyl)-pyridin-2-yl)-1-methyl-1H-1,2,3-triazol-5-yl)-carbamate] | 47.5 nM |
| C[C@@H](OC(=O)Nc1c(-c2ccc(C(=O)Nc3ccc(-c4ccccc4)cc3)cn2)nnn1C)c1cc(F)cnc1F [Compound 36, (R)-1-(2,5-difluoro-pyridin-3-yl)ethyl (4-(5-([1,1′-biphen-yl]-4-ylcarbamoyl)-pyridin-2-yl)-1-methyl-1H-1,2,3-triazol-5-yl)-carbamate] | 15.6 nM |
| Cc1nnc(-c2ccc(NC(=O)c3ccc(-c4nnn(C)c4NC(=O)O[C@H](C)c4cc(F)cnc4F)nc3)cc2)o1 [Compound 39, (R)-1-(2,5-difluoro-pyridin-3-yl)ethyl (1-methyl-4-(5-((4-(5-methyl-1,3,4-oxadiazol-2-yl)phenyl)-carbamoyl)-pyridin-2-yl)-1H-1,2,3-triazol-5-yl)carbamate] | 9.1 nM |
| C[C@@H](OC(=O)Nc1c(-c2ccc(C(=O)Nc3ccc(-c4cccnc4)cc3)cn2)nnn1C)c1cc(F)cnc1F [Compound 40, (R)-1-(2,5-difluoro-pyridin-3-yl)ethyl (1-methyl-4-(5-((4-(pyridin-3-yl)phenyl)carbam-oyl)pyridin-2-yl)-1H-1,2,3-triazol-5-yl)carbamate] | 7.6 nM |
| C[C@@H](OC(=O)Nc1c(-c2ccc(C(=O)Nc3ccc(-c4ccncc4)cc3)cn2)nnn1C)c1cc(F)cnc1F [Compound 41, (R)-1-(2,5-difluoro-pyridin-3-yl)ethyl (1-methyl-4-(5-((4-(pyridin-4-yl)phenyl)carbam-oyl)pyridin-2-yl)-1H-1,2,3-triazol-5-yl)carbamate] | 61 nM |
| C[C@@H](OC(=O)Nc1c(-c2ccc(C(=O)Nc3cc(Cl)nc(C(F)(F)F)c3)cn2)nnn1C)c1cc(F)cnc1F [Compound 43, (R)-1-(2,5-difluoro-pyridin-3-yl)ethyl (4-(5-((2-chloro-6-(trifluoromethyl)-pyridin-4-yl)-carbamoyl)pyridin-2-yl)-1-methyl-1H-1,2,3-triazol-5-yl)-carbamate] | 9 nM |

Next, values leading:

| EC50 | Compound |
| --- | --- |
| < 4.6 nM | C[C@@H](OC(=O)Nc1c(-c2ccc(C(=O)NC34CC(c5ccccc5)(C3)C4)cn2)nnn1C)c1cc(F)cnc1F [Compound 26] |
| 42.8 nM | C[C@@H](OC(=O)Nc1c(-c2ccc(C(=O)Nc3ccnc(F)c3)cn2)nnn1C)c1cc(F)cnc1F [Compound 27, (R)-1-(2,5-difluoro-pyridin-3-yl)ethyl (4-(5-((2-fluoro-pyridin-4-yl)-carbamoyl)pyridin-2-yl)-1-methyl-1H-1,2,3-triazol-5-yl)-carbamate] |
| 427 nM | C[C@@H](OC(=O)Nc1c(-c2ccc(C(=O)Nc3ccc(C4CC4)nc3)cn2)nnn1C)c1cc(F)cnc1F [Compound 28, (R)-1-(2,5-difluoro-pyridin-3-yl)ethyl (4-(5-((6-cyclo-propylpyridin-3-yl)carbamoyl)-pyridin-2-yl)-1-methyl-1H-1,2,3-triazol-5-yl)-carbamate] |
| 3420 nM | C[C@@H](OC(=O)Nc1c(-c2ccc(C(=O)NC34CC(S(C)(=O)=O)(C3)C4)cn2)nnn1C)c1cc(F)cnc1F [Compound 29, (R)-1-(2,5-difluoro-pyridin-3-yl)ethyl (1-methyl-4-(5-((3-(methylsulfon-yl)bicyclo[1.1.1]-pentan-1-yl)carbam-oyl)pyridin-2-yl)-1H-1,2,3-triazol-5-yl)carbamate] |
| 14.9 nM | C[C@@H](OC(=O)Nc1c(-c2ccc(C(=O)Nc3ccnc(C(F)F)c3)cn2)nnn1C)c1cc(F)cnc1F [Compound 31, (R)-1-(2,5-difluoro-pyridin-3-yl)ethyl (4-(5-((2-(difluoro-methyl)pyridin-4-yl)carbamoyl)-pyridin-2-yl)-1-methyl-1H-1,2,3-triazol-5-yl)-carbamate] |
| 55.9 nM | COc1cc(NC(=O)c2ccc(-c3nnn(C)c3NC(=O)O[C@H](C)c3cc(F)cnc3F)nc2)ccn1 [Compound 32, (R)-1-(2,5-difluoro-pyridin-3-yl)ethyl (4-(5-((2-methoxy-pyridin-4-yl)-carbamoyl)pyridin-2-yl)-1-methyl-1H-1,2,3-triazol-5-yl)-carbamate] |
| 140 nM | C[C@@H](OC(=O)Nc1c(-c2ccc(C(=O)Nc3ccnc(Cl)c3F)cn2)nnn1C)c1cc(F)cnc1F [Compound 35, (R)-1-(2,5-difluoro-pyridin-3-yl)ethyl (4-(5-((2-chloro-3-fluoropyridin-4-yl)-carbamoyl)-pyridin-2-yl)-1-methyl-1H-1,2,3-triazol-5-yl)-carbamate] |
| 196 nM | C[C@@H](OC(=O)Nc1c(-c2ccc(C(=O)N[C@@H]3C[C@H]3c3ccccc3)cn2)nnn1C)c1cc(F)cnc1F [Compound 37, (R)-1-(2,5-difluoro-pyridin-3-yl)ethyl (1-methyl-4-(5-(((1R,2S)-2-phenyl-cyclopropyl)carbam-oyl)pyridin-2-yl)-1H-1,2,3-triazol-5-yl)carbamate] |
| 24.4 nM | C[C@@H](OC(=O)Nc1c(-c2ccc(C(=O)Nc3cnnc(Cl)c3)cn2)nnn1C)c1cc(F)cnc1F [Compound 38, (R)-1-(2,5-difluoro-pyridin-3-yl)ethyl (4-(5-((6-chloro-pyridazin-4-yl)-carbamoyl)pyridin-2-yl)-1-methyl-1H-1,2,3-triazol-5-yl)-carbamate] |
| 10.1 nM | C[C@@H](OC(=O)Nc1c(-c2ccc(C(=O)Nc3cnc(C(F)(F)F)s3)cn2)nnn1C)c1cc(F)cnc1F [Compound 42, (R)-1-(2,5-difluoro-pyridin-3-yl)ethyl (1-methyl-4-(5-((2-(trifluoromethyl)-thiazol-5-yl)-carbamoyl)pyridin-2-yl)-1H-1,2,3-triazol-5-yl)-carbamate] |
| 273 nM | C[C@@H](OC(=O)Nc1c(-c2ccc(C(=O)NC3CC(c4ccccc4)C3)cn2)nnn1C)c1cc(F)cnc1F (stereo partly drawn) [Compound 44, (R)-1-(2,5-difluoro-pyridin-3-yl)ethyl (1-methyl-4-(5-((3-phenylcyclo-butyl)carbamoyl)-pyridin-2-yl)-1H-1,2,3-triazol-5-yl)-carbamate] |
